# Source: publication PMC4378371, “Subunit disassembly and inhibition of TNFα by a semi-synthetic bicyclic peptide” (Protein Engineering, Design and Selection, 2015)
# Bridge positions count the residues as written; N and C are the ends. Peptide text beside a SMILES is read from it.
# What was measured:
# TNFα trimer = settings: TNFα 10 µM with excess peptide 100 µM, longer pre-incubation
# L929 cells = settings: at >100 µM compound
# TNFα = TNFα (Homo sapiens, UniProt P01375); settings: L929 assay; unable to fully rescue because of toxicity at higher concentrations
# Sequence of TNFα (P01375 77-233 limits assumed): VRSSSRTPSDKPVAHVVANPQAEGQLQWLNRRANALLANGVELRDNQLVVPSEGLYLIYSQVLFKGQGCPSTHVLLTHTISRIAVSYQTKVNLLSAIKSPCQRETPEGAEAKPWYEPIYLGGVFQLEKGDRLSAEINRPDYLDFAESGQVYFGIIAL
SMILES,effect on TNFα trimers (MS) (TNFα trimer),cell death (L929 cells) [%],maximal rescue of cell viability (TNFα) [%]
Cc1c2c(C)c3c(C)c1CSC[C@H](NC(=O)[C@@H]1CCCN1C(=O)[C@@H]1CCCN1C(=O)[C@@H](NC(=O)[C@H](C)N)CSC3)C(=O)N[C@@H](CC(C)C)C(=O)N[C@@H](Cc1c[nH]c3ccccc13)C(=O)N[C@@H](CCC(N)=O)C(=O)N[C@@H](C(C)C)C(=O)N[C@@H](CC(C)C)C(=O)N[C@H](C(=O)NCC(=O)NCC(=O)N[C@@H](CO)C(=O)NCC(=O)N[C@@H](CO)C(=O)NCC(=O)N[C@@H](CO)C(=O)NCC(N)=O)CSC2 [M21h],converted quantitatively into dimers and monomers,–,–
"CC(C)C[C@H](NC(=O)[C@@H]1CSSC[C@@H]2NC(=O)[C@H](CC(C)C)NC(=O)[C@H](CCC(=O)O)NC(=O)[C@@H](NC(=O)[C@H](CCC(=O)O)NC(=O)[C@H](CC(=O)O)NC(=O)[C@@H](N)CC(N)=O)CSSC[C@H](NC(=O)[C@H](C)NC(=O)[C@H](C(C)C)NC(=O)[C@H](CC(N)=O)NC(=O)[C@H](C(C)C)NC2=O)C(=O)N[C@@H]([C@@H](C)O)C(=O)NCC(=O)N1)C(=O)O [SPD304] (H-NDECELCVNVACTGCL-OH; disulfide 4-12, 7-15)",–,100,≤ 73
